# Reference: patent US20260285850A1, “SUBSTITUTED OXAZOLIDINONES AND IMIDAZOLINONES AS HERBICIDES” (FMC CORPORATION, priority 2023, published 2026)
# Legend:
# Assay type in all cases: in vivo
# [1] = system: barnyardgrass (Echinochloa crus-galli); test: Test A preemergence soil spray, visual injury rating 0-100; conditions: 10 days
# How it was run: (§1)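 Plants in a loam and sand soil blend were treated with each test chemical, in a non-phytotoxic solvent system including surfactant, either sprayed on seeded soil before emergence or applied after emergence at the one- to two-leaf stage. Ten days later in the greenhouse, plants were compared with untreated controls and visually rated from 0 (no effect) to 100 (complete control).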
# [2] = system: blackgrass (Alopecurus myosuroides); test: as above; conditions: 10 days
# How it was run: as §1
# corn (Zea mays) [3] = test: as above; conditions: 10 days
# How it was run: as §1
# [4] = system: green foxtail (Setaria viridis); test: as above; conditions: 10 days
# How it was run: as §1
# kochia (Bassia scoparia) [5] = test: as above; conditions: 10 days
# How it was run: as §1
# [6] = system: oat, wild (wild oat, Avena fatua); test: as above; conditions: 10 days
# How it was run: as §1
# [7] = system: palmer (palmer amaranth, palmer pigweed, Amaranthus palmeri); test: as above; conditions: 10 days
# How it was run: as §1
# [8] = system: ragweed (common ragweed, Ambrosia artemisiifolia); test: as above; conditions: 10 days
# How it was run: as §1
# [9] = system: ryegrass, Italian (italian ryegrass, Lolium multiflorum); test: as above; conditions: 10 days
# How it was run: as §1
# soybean (Glycine max) [10] = test: as above; conditions: 10 days
# How it was run: as §1
# [11] = system: wheat (Triticum aestivum); test: as above; conditions: 10 days
# How it was run: as §1
# [12] = system: barnyardgrass (Echinochloa crus-galli); test: Test A postemergence application, visual injury rating 0-100
# How it was run: as §1
# [13] = system: blackgrass (Alopecurus myosuroides); test: as above
# How it was run: as §1
# corn (Zea mays) [14] = test: as above
# How it was run: as §1
# [15] = system: green foxtail (Setaria viridis); test: as above
# How it was run: as §1
# [16] = system: horseweed (Erigeron canadensis); test: as above
# How it was run: as §1
# kochia (Bassia scoparia) [17] = test: as above
# How it was run: as §1
# [18] = system: oat, wild (wild oat, Avena fatua); test: as above
# How it was run: as §1
# [19] = system: palmer (palmer amaranth, palmer pigweed, Amaranthus palmeri); test: as above
# How it was run: as §1
# [20] = system: ragweed (common ragweed, Ambrosia artemisiifolia); test: as above
# How it was run: as §1
# [21] = system: ryegrass, Italian (italian ryegrass, Lolium multiflorum); test: as above
# How it was run: as §1
# soybean (Glycine max) [22] = test: as above
# How it was run: as §1
# [23] = system: wheat (Triticum aestivum); test: as above
# How it was run: as §1
# [24] = system: barnyardgrass (Echinochloa crusgalli); test: Test B flooded paddy test, visual plant response rating 0-100; conditions: 250 g ai/ha, Flood, applied to paddy water, evaluated after 13 days
# How it was run: (§2)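 Visual evaluation after 13 days. Water-applied treatment, 3 cm flood depth held constant, plants at 2-leaf stage at treatment.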
# [25] = system: ducksalad (Heteranthera limosa); test: as above; conditions: 250 g ai/ha, Flood, applied to paddy water, evaluated after 13 days
# How it was run: as §2
# rice (Oryza sativa) = test: as above; conditions: 250 g ai/ha, Flood, applied to paddy water, evaluated after 13 days
# How it was run: as §2
# [26] = system: sedge, umbrella (small-flower umbrella sedge, Cyperus difformis); test: as above; conditions: 250 g ai/ha, Flood, applied to paddy water, evaluated after 13 days
# How it was run: as §2
# [27] = 62 g ai/ha, 0 = no effect, 100 = complete control
# [28] = 62 g ai/ha, postemergence, 10 days, 0 = no effect, 100 = complete control
# [29] = Postemergence, 16 g ai/ha, greenhouse 10 days, 0 no effect, 100 complete control
compound,measurement,setting,value
CC1(C(=O)NC2C=CC(C(=O)NO)C2)CN(c2cc(F)cc(F)c2)C(=O)O1 (centres unmarked) [Compound 137],Barnyardgrass plant response rating,"[1]; 16 g ai/ha, 0 to 100 scale",0
same,Barnyardgrass plant response rating (0-100),[1]; [27],60
same,Blackgrass plant response rating,"[2]; 16 g ai/ha, 0 to 100 scale",0
same,Blackgrass plant response rating (0-100),[2]; [27],50
same,Corn plant response rating,"corn (Zea mays) [3]; 16 g ai/ha, 0 to 100 scale",0
same,Corn plant response rating (0-100),corn (Zea mays) [3]; [27],10
same,"Foxtail, Green plant response rating","[4]; 16 g ai/ha, 0 to 100 scale",0
same,"Foxtail, Green plant response rating (0-100)",[4]; [27],30
same,Kochia plant response rating,"kochia (Bassia scoparia) [5]; 16 g ai/ha, 0 to 100 scale",0
same,Kochia plant response rating (0-100),kochia (Bassia scoparia) [5]; [27],90
same,"Oat, Wild plant response rating","[6]; 16 g ai/ha, 0 to 100 scale",0
same,"Oat, Wild plant response rating (0-100)",[6]; [27],30
same,"Pigweed, Palmer plant response rating","[7]; 16 g ai/ha, 0 to 100 scale",20
same,"Pigweed, Palmer plant response rating (0-100)",[7]; [27],70
same,Ragweed plant response rating,"[8]; 16 g ai/ha, 0 to 100 scale",0
same,Ragweed plant response rating (0-100),[8]; [27],0
same,"Ryegrass, Italian plant response rating","[9]; 16 g ai/ha, 0 to 100 scale",30
same,"Ryegrass, Italian plant response rating (0-100)",[9]; [27],60
same,Soybean plant response rating,"soybean (Glycine max) [10]; 16 g ai/ha, 0 to 100 scale",0
same,Soybean plant response rating (0-100),soybean (Glycine max) [10]; [27],50
same,Wheat plant response rating,"[11]; 16 g ai/ha, 0 to 100 scale",20
same,Wheat plant response rating (0-100),[11]; [27],90
same,Barnyardgrass plant response rating (0-100),[12]; [28],70
same,Barnyardgrass plant response rating (0 to 100 scale),[12]; [29],0
same,Blackgrass plant response rating (0-100),[13]; [28],60
same,Blackgrass plant response rating (0 to 100 scale),[13]; [29],0
same,Corn plant response rating (0-100),corn (Zea mays) [14]; [28],50
same,Corn plant response rating (0 to 100 scale),corn (Zea mays) [14]; [29],10
same,"Foxtail, Green plant response rating (0-100)",[15]; [28],10
same,"Foxtail, Green plant response rating (0 to 100 scale)",[15]; [29],0
same,Horseweed plant response rating (0-100),[16]; [28],50
same,Horseweed plant response rating (0 to 100 scale),[16]; [29],0
same,Kochia plant response rating (0-100),kochia (Bassia scoparia) [17]; [28],50
same,Kochia plant response rating (0 to 100 scale),kochia (Bassia scoparia) [17]; [29],0
same,"Oat, Wild plant response rating (0-100)",[18]; [28],30
same,"Oat, Wild plant response rating (0 to 100 scale)",[18]; [29],0
same,"Pigweed, Palmer plant response rating (0-100)",[19]; [28],30
same,"Pigweed, Palmer plant response rating (0 to 100 scale)",[19]; [29],0
same,Ragweed plant response rating (0-100),[20]; [28],0
same,Ragweed plant response rating (0 to 100 scale),[20]; [29],0
same,"Ryegrass, Italian plant response rating (0-100)",[21]; [28],30
same,"Ryegrass, Italian plant response rating (0 to 100 scale)",[21]; [29],0
same,Soybean plant response rating (0-100),soybean (Glycine max) [22]; [28],60
same,Soybean plant response rating (0 to 100 scale),soybean (Glycine max) [22]; [29],0
same,Wheat plant response rating (0-100),[23]; [28],70
same,Wheat plant response rating (0 to 100 scale),[23]; [29],0
same,"Plant response rating, Barnyardgrass (0 to 100 scale, 0 is no effect and 100 is complete control)",[24],0
same,"Plant response rating, Ducksalad (0 to 100 scale, 0 is no effect and 100 is complete control)",[25],0
same,"Plant response rating, Rice (0 to 100 scale, 0 is no effect and 100 is complete control)",rice (Oryza sativa),0
same,"Plant response rating, Sedge, Umbrella (0 to 100 scale, 0 is no effect and 100 is complete control)",[26],0
